Measurements as given in patent US5665718A, “Imidazodiazepines” (Hoffmann-La Roche Inc., priority 1994, dated 1997).
pIC50: −log10 of the molar value. Like-named read-outs stand apart in the source and are kept apart here.

Legend:
[1] = Rotating rod test (sedative/muscle relaxant properties), i.v.; format: in vivo; conditions: Mus musculus, iv, mice
Method: The sedative/muscle relaxant properties of the compounds of formula I in accordance with the invention can be determined, for example, in the rotating rod test. Mice weighing 19-21 g are used for this test. They have free access to feed and drinking water up to 1 hour before the beginning of the test. They are brought into the test laboratory at least 30 minutes before the test. In the rotating rod test the animals are placed on a horizontally arranged, smooth metal rod having a diameter of 3 cm, which is rotated at 2 revolutions per minute. Initially, the animals are given the opportunity of familiarizing themselves with the test situation for 30 seconds. Subsequently, those animals which succeed in remaining on the rod for at least 1 minute are selected. These animals are then given the test preparations intravenously in different dosages. At various points in time it is then determined whether the animals are able to remain on the rod for a minimum period (minimum period: 10 seconds; from 5 minutes after administration: 1 minute.). That dosages at which 50% of the animals are capable of remaining on the rod (ED 50) is determined.

[2] = molecular target: central benzodiazepine receptors; assay: Affinity to central benzodiazepine receptors: inhibition of binding of tritiated flumazenil in rat cortex; conditions: in vitro
Method: The affinity of compounds of general formula I to the central benzodiazepine receptors was established in vitro according to the methods described in Nature 294, 763-765 (1981) and J. Neurochemistry 37, 714-722 (1981). According to these methods, the inhibition of the binding of tritiated flumazenil to the specific benzodiazepine receptors in the cortex of rats by the respective test substances is determined. The IC50 ("50% inhibiting concentration") denotes that concentration of the respective test substance which brings about a 50 per cent inhibition of the specific binding of tritiated flumazenil to the specific benzodiazepine receptors in the cortex of rats.

[3] = Fatalities after i.v. administration to rats; format: in vivo; conditions: 32 and 100 mg/kg i.v.
[4] = Fatalities after i.v. administration to mice; format: in vivo; conditions: 32 and 100 mg/kg i.v.
[5] = 15 s, 15 sec after administration, read-out: Rotating rod test, ED50, 15 sec after administration
[6] = 0.5 min, 30 sec after administration, read-out: Rotating rod test, ED50, 30 sec after administration
[7] = 1 min, 60 sec after administration, read-out: Rotating rod test, ED50, 60 sec after administration
[8] = 2 min, 2 min after administration, read-out: Rotating rod test, ED50, 2 min after administration
[9] = 5 min, 5 min after administration, read-out: Rotating rod test, ED50, 5 min after administration
[10] = 0.25 h, 15 min after administration, read-out: Rotating rod test, ED50, 15 min after administration
[11] = 0.5 h, 30 min after administration, read-out: Rotating rod test, ED50, 30 min after administration
[12] = 1 h, 60 min after administration, read-out: Rotating rod test, ED50, 60 min after administration

| Structure (SMILES) | ED50 [1, 5] | ED50 [1, 6] | ED50 [1, 7] | ED50 [1, 8] | ED50 [1, 9] | ED50 [1, 10] | ED50 [1, 11] | ED50 [1, 12] | pIC50 [2] | fatalities [3] | fatalities [4] |
| --- | --- | --- | --- | --- | --- | --- | --- | --- | --- | --- | --- |
| CCCN(CCC)Cc1nc(-c2ncn3c2[C@@H]2CCN2C(=O)c2c(Cl)cccc2-3)no1 [A, (S)-8-chloro-1-(5-dipropylaminomethyl-1,2,4-oxadiazol-3-yl)-12,12a-dihydro-9H,11H-azeto[2,1-c]imidazo[1,5-a][1,4]benzodiazepin-9-one] | 0.3 mg/kg | 0.3 mg/kg | 0.7 mg/kg | 0.8 mg/kg | 1.4 mg/kg | 2.1 mg/kg | 7.3 mg/kg | > 10 mg/kg | 7.89 | without fatalities occurring | without fatalities occurring |
| CCCN(CCC)Cc1nc(-c2ncn3c2[C@@H]2CCN2C(=O)c2sccc2-3)no1 [B, (S)-1-(5-dipropylaminomethyl-1,2,4-oxadiazol-3-yl)-11,11a-dihydro-8H,10H-azeto[1,2-a]imidazo[5,1-c]thieno[3,2-e][1,4]diazepin-8-one] | 0.1 mg/kg | 0.1 mg/kg | 0.2 mg/kg | 0.4 mg/kg | 0.7 mg/kg | 3.5 mg/kg | > 10 mg/kg | > 10 mg/kg | 8.37 | without fatalities occurring | without fatalities occurring |
| CN1Cc2c(-c3noc(CN4CCCCC4)n3)ncn2-c2ccc(F)cc2C1=O [C, 8-fluoro-5-methyl-3-[5-(piperidin-1-ylmethyl)-1,2,4-oxadiazol-3-yl]-5,6-dihydro-4H-imidazo[1,5-a][1,4]benzodiazepin-6-one] | 0.8 mg/kg | 0.8 mg/kg | 1.2 mg/kg | 1.6 mg/kg | 3.2 mg/kg | ≥ 10 mg/kg | > 10 mg/kg | > 10 mg/kg | 7.30 | – | – |
| CCCN(CCC)Cc1nc(-c2ncn3c2CN(C)C(=O)c2cc(F)ccc2-3)no1 [D, 3-(5-dipropylaminomethyl-1,2,4-oxadiazol-3-yl)-8-fluoro-5-methyl-5,6-dihydro-4H-imidazo[1,5-a][1,4]benzodiazepin-6-one] | 0.2 mg/kg | 0.2 mg/kg | 0.3 mg/kg | 0.3 mg/kg | 0.8 mg/kg | 2.6 mg/kg | > 10 mg/kg | > 10 mg/kg | 8.48 | without fatalities occurring | without fatalities occurring |
| C=CCN(CC=C)Cc1nc(-c2ncn3c2[C@@H]2CCN2C(=O)c2c-3ccc(F)c2Cl)no1 [E, (S)-1-(5-diallylaminomethyl-1,2,4-oxadiazol-3-yl)-8-chloro-7-fluoro-12,12a-dihydro-9H,11H-azeto[2,1-c]imidazo[1,5-a][1,4]benzodiazepin-9-one] | 0.2 mg/kg | 0.3 mg/kg | 0.3 mg/kg | 0.4 mg/kg | 0.8 mg/kg | 3.9 mg/kg | ≥ 10 mg/kg | > 10 mg/kg | 8.00 | without fatalities occurring | without fatalities occurring |
| CCCN(CCC)Cc1nc(-c2ncn3c2CN(C)C(=O)c2ccccc2-3)no1 [F, 3-(5-dipropylaminomethyl-1,2,4-oxadiazol-3-yl)-5-methyl-5,6-dihydro-4H-imidazo[1,5-a][1,4]benzodiazepin-6-one] | 0.2 mg/kg | 0.4 mg/kg | 0.5 mg/kg | 0.9 mg/kg | ≥ 10 mg/kg | > 10 mg/kg | > 10 mg/kg | > 10 mg/kg | 8.16 | – | – |
| CCCN(CCC)Cc1nnc(-c2ncn3c2CN(C)C(=O)c2cc(F)ccc2-3)o1 [G, 3-(5-dipropylaminomethyl-1,3,4-oxadiazol-2-yl)-8-fluoro-5-methyl-5,6-dihydro-4H-imidazo[1,5-c][1,4]benzodiazepin-6-one] | 0.3 mg/kg | 0.3 mg/kg | 0.7 mg/kg | 1.1 mg/kg | 3.6 mg/kg | ≥ 10 mg/kg | > 10 mg/kg | > 10 mg/kg | 7.74 | – | – |
| CCN(CC)Cc1nc(-c2ncn3c2CN(C)C(=O)c2cc(F)ccc2-3)no1 [H, 3-(5-diethylaminomethyl-1,2,4-oxadiazol-3-yl)-8-fluoro-5-methyl-5,6-dihydro-4H-imidazo[1,5-a][1,4]benzodiazepin-6-one] | 0.1 mg/kg | 0.2 mg/kg | 0.4 mg/kg | 0.7 mg/kg | 1.2 mg/kg | 4.3 mg/kg | 5.1 mg/kg | > 10 mg/kg | 7.60 | – | – |
| O=C1c2c(Cl)cccc2-n2cnc(-c3noc(CN4CCCCC4)n3)c2[C@@H]2CCN12 [I, (S)-8-chloro-1-[5-(piperidin-1-yl)methyl-1,2,4-oxadiazol-3-yl]-12,12a-dihydro-9H,11H-azeto[2,1-c]imidazo[1,5-a][1,4]benzodiazepin-9-one] | 0.1 mg/kg | 0.7 mg/kg | 0.7 mg/kg | 1 mg/kg | 1.1 mg/kg | 3.1 mg/kg | ≥ 10 mg/kg | > 10 mg/kg | 8.36 | – | – |
| CCCN(CCC)Cc1nc(-c2ncn3c2CN(C)C(=O)c2c(F)cccc2-3)no1 [J, 7-fluoro-5-methyl-3-(5-dipropylaminomethyl-1,2,4-oxadiazol-3-yl)-5,6-dihydro-4H-imidazo[1,5-a][1,4]benzodiazepin-6-one] | 0.1 mg/kg | 0.2 mg/kg | 0.3 mg/kg | 0.4 mg/kg | 1.1 mg/kg | > 10 mg/kg | > 10 mg/kg | > 10 mg/kg | 8.64 | – | – |
| CCN(CC)Cc1nc(-c2ncn3c2CN(C)C(=O)c2c(Cl)cccc2-3)no1 [K, 7-chloro-3-(5-diethylaminomethyl-1,2,4-oxadiazol-3-yl)-5-methyl-5,6-dihydro-4H-imidazo[1,5-a][1,4]benzodiazepin-6-one] | 0.1 mg/kg | 0.3 mg/kg | 0.3 mg/kg | 0.6 mg/kg | 2 mg/kg | ≥ 10 mg/kg | ≥ 10 mg/kg | ≥ 10 mg/kg | 8.85 | – | – |
| CCCN(CCC)Cc1nnc(-c2ncn3c2CN(C)C(=O)c2c(Cl)cccc2-3)o1 [L, 7-chloro-3-(5-dipropylaminomethyl-1,3,4-oxadiazol-2-yl)-5-methyl-5,6-dihydro-4H-imidazo[1,5-a][1,4]benzodiazepin-6-one] | 0.3 mg/kg | 0.4 mg/kg | 0.6 mg/kg | 1.5 mg/kg | 5 mg/kg | > 10 mg/kg | > 10 mg/kg | > 10 mg/kg | 8.35 | – | – |
| CCN(CC)Cc1nc(-c2ncn3c2[C@@H]2CCN2C(=O)c2sccc2-3)no1 [M, (S)-1-(5-diethylaminomethyl-1,2,4-oxadiazol-3-yl)-11,11a-dihydro-8H,10H-azeto[1,2-a]imidazo[5,1-c]thieno[3,2-e][1,4]diazepin-8-one] | 0.2 mg/kg | 0.3 mg/kg | 0.3 mg/kg | 1.1 mg/kg | 2.1 mg/kg | > 10 mg/kg | > 10 mg/kg | > 10 mg/kg | 8.19 | – | – |
| CCCCN(CCCC)Cc1nnc(-c2ncn3c2[C@@H]2CCN2C(=O)c2sccc2-3)o1 [N, (S)-1-(5-dibutylaminomethyl-1,3,4-oxadiazol-2-yl)-11,11a-dihydro-8H,10H-azeto[1,2-a]imidazo[5,1-c]thieno[3,2-e][1,4]diazepin-8-one] | 0.3 mg/kg | 0.3 mg/kg | 0.3 mg/kg | 0.6 mg/kg | 2.4 mg/kg | > 10 mg/kg | > 10 mg/kg | > 10 mg/kg | 8.32 | – | – |
| CC(C)N(Cc1nc(-c2ncn3c2CN(C)C(=O)c2ccccc2-3)no1)C(C)C [O, 3-(5-diisopropylaminomethyl-1,2,4-oxadiazol-3-yl)-5-methyl-5,6-dihydro-4H-imidazo[1,5-a][1,4]benzodiazepin-6-one] | 0.3 mg/kg | 0.5 mg/kg | 0.7 mg/kg | 1 mg/kg | 3 mg/kg | > 10 mg/kg | > 10 mg/kg | > 10 mg/kg | 8.19 | – | – |
| CC(C)N(Cc1nc(-c2ncn3c2CN(C)C(=O)c2cc(F)ccc2-3)no1)C(C)C [P, 3-(5-diisopropylaminomethyl-1,2,4-oxadiazol-3-yl)-8-fluoro-5-methyl-5,6-dihydro-4H-imidazo[1,5-a][1,4]benzodiazepin-6-one] | 0.1 mg/kg | 0.2 mg/kg | 0.3 mg/kg | 0.7 mg/kg | 1 mg/kg | 4.3 mg/kg | ≥ 10 mg/kg | > 10 mg/kg | 8.39 | – | – |
